According to patent publication US8710099B2, “Treatment of cancer using the sodium salt of a benzoic acid derivative” (New York University, priority 2009, dated 2014):

Experiments:
[1] = system: MDA-MB 231 human breast carcinoma cells; assay: MDA-MB 231 breast carcinoma proliferation, MTT assay; format: cell-based; conditions: 100 μg/mL, 0.5% serum, 3 days; FIG. 14A
Method: MDA-MB 231 human breast carcinoma cells were washed and re-suspended in proliferation buffer containing 0.5% serum in the presence of 100 μg/mL of C-45-Na or C-45-HCl. DMSO control samples lacking C-45-Na and C-45-HCl were also prepared. Treated cells (1,500/well) were added to individual wells of a cell culture microtiter plate and allowed to grow over a time course of 3 days. Proliferation was monitored using a commercially available MTT assay (Millipore). Data points represent the mean±standard deviations from triplicate wells.

Human M21 melanoma cells [2] = assay: M21 melanoma cell proliferation, MTT assay; format: cell-based
Method: Human M21 melanoma cells were washed and re-suspended in proliferation buffer containing 1.0% serum in the presence or absence of 100 ng/mL of C-45-Na, or C-45-HCl. DMSO control samples lacking C-45-Na or C-45-HCl were also prepared. Treated cells (1,500/well) were added to individual wells of a cell culture microtiter plate and allowed to grow over a time course of 3 days. Proliferation was monitored using a commercially available MTT assay (Millipore). Data points represent the mean±standard deviations from triplicate wells.
Human M21 melanoma cells were washed and re-suspended in proliferation buffer containing 1.0% serum in the presence or absence of 100 ng/mL of C-45-Na, or C-45-HCl. Treated cells (1,500/well) were added to individual wells of a cell culture microtiter plate and allowed to grow over a time course of 3 days. Proliferation was monitored using a commercially available MTT assay (Millipore). Data points represent the mean±standard deviations from triplicate wells.
Human M21 melanoma cells were washed and re-suspended in proliferation buffer containing 0.5% serum in the presence of 50 μg/mL of C-45-Na, C-45-K, or C-45-HCl. DMSO control samples lacking C-45-Na, C-45-K, and C-45-HCl were also prepared. Treated cells (1,500/well) were added to individual wells of a cell culture microtiter plate and allowed to grow over a time course of 3 days. Proliferation was monitored using a commercially available MTT assay (Millipore). Data points represent the mean±standard deviations from triplicate wells.
(§1) In Example 6, the differential effects of C-45-Na on normal human melanocytes, normal human keratinocytes and human melanoma cells were examined Normal human melanocytes, keratinocytes and M21 melanoma cells were allowed to proliferate in the presence or absence of C-45-Na (50 μg/mL) for 24 hours. Proliferation was monitored using a commercially available MTT assay (Millipore).

C8161 melanoma cells = assay: Melanoma cell morphology; format: cell-based, human; conditions: 100 μg/mL, 24 hours; FIG. 11B
Method: (§2) Human M21 melanoma cells or C8161 melanoma cells were incubated in the presence of 100 μg/mL of C-45-Na or C-45-HCl for 24 hours. DMSO control samples lacking C-45-Na and C-45-HCl were also prepared.

Normal human melanocytes = assay: Normal melanocyte proliferation, MTT assay; format: cell-based; conditions: 50 μg/mL, 24 hours; FIG. 12B
Method: as §1

[3] = system: Panc-1 human pancreatic carcinoma cells; assay: Panc-1 pancreatic carcinoma proliferation, MTT assay; format: cell-based; conditions: 4.7, 9.3, 17.3, 37.5, and 75 μg/mL, 3 days; FIG. 14B
Method: Panc-1 human pancreatic carcinoma cells were allowed to proliferate over a 3-day time course in the presence or absence of a series of concentrations of C-45-Na (4.7, 9.3, 17.3, 37.5, and 75 μg/mL) of or C-45-HCl. DMSO control samples lacking C-45-Na and were also prepared. Treated cells (1,500/well) were added to individual wells of a cell culture microtiter plate and allowed to grow over a time course of 3 days. Proliferation was monitored using a commercially available MTT assay (Millipore). Data points represent the mean±standard deviations from triplicate wells.

[4] = system: normal human keratinocytes; assay: Normal keratinocyte proliferation, MTT assay; format: cell-based; conditions: 50 μg/mL, 24 hours; FIG. 12C
Method: as §1

M21 melanoma cells = assay: M21 melanoma tumor growth in nude mice; format: in vivo
Method: Briefly, M21 melanoma cells (4.0×10^6) were injected subcutaneously in nude mice. Following establishment of palpable tumors (4 days), mice were either left untreated or treated daily by i.p injection with DMSO (50 μl/day), or with C-45-Na (50 μl/day) or C-45-HCl (50 μl/day) at a concentration range of 1-100 ug/day. Tumor size was monitored by caliper measurements and tumor volumes were estimated using the formula (L^2×W/2) where “L” represents length, and “W” represents width.
The effects of C45-Na on M21 melanoma tumor growth in vivo were studied. Briefly, M21 melanoma cells (4.0×10^6) were injected subcutaneously in nude mice. Following establishment of palpable tumors (4 days), mice were either left untreated or treated daily by i.p injection with DMSO (50 μl/day), or with C-45-Na concentrations of 0.1, 0.5, or 1.0 μg/day. Tumor size was monitored by caliper measurements and tumor volumes were estimated using the formula (L^2×W/2) where “L” represents length, and “W” represents width.
In experiment 11, an activity comparison between C-45-Na (1.0 μg) and C45-HCl (1.0 μg) on the in vivo growth of M21 tumors was examined following daily treatment after 21 days. Tumor size was monitored by caliper measurements and tumor volumes were estimated using the formula (L^2×W/2) where “L” represents length, and “W” represents width.

[5] = system: A375 human melanoma cells; assay: A375 melanoma cell proliferation, MTT assay; format: cell-based; conditions: 100 μg/mL, 0.5% serum, 3 days; FIG. 13B
Method: (§3) C8161 and A375 human melanoma cells were washed and re-suspended in proliferation buffer containing 0.5% serum in the presence of 100 μg/mL of C-45-Na or C-45-HCl. DMSO control samples lacking C-45-Na and C-45-HCl were also prepared. Treated cells (1,500/well) were added to individual wells of a cell culture microtiter plate and allowed to grow over a time course of 3 days. Proliferation was monitored using a commercially available MTT assay (Millipore). Data points represent the mean±standard deviations from triplicate wells.

Human M21 melanoma cells [6] = assay: Melanoma cell morphology; format: cell-based; conditions: 100 μg/mL, 24 hours; FIG. 11A
Method: as §2

[7] = system: C8161 human melanoma cells; assay: C8161 melanoma cell proliferation, MTT assay; format: cell-based; conditions: 100 μg/mL, 0.5% serum, 3 days; FIG. 13A
Method: as §3

For `C=CCNc1ccc(C(=O)[O-])cc1.[Na+]` [C-45-Na, Sodium 4-allylaminobenzoate], the “MDA-MB 231 cell proliferation” value [1] was “very potent anti-proliferative activity”, the “selectivity, tumor cells versus normal human cells” value (Human M21 melanoma cells [2]; 50 μg/mL, 24 hours, M21 vs melanocytes and keratinocytes) was “selective for tumor cell proliferation rather than normal human cells” and the “M21 tumor cell proliferation” value (Human M21 melanoma cells [2]; Experiment 1: 100 ng/mL, 1.0% serum, 3 days, FIG. 6) was “very potent anti-proliferative activity”. For the same molecule, the “M21 tumor cell proliferation” value (Human M21 melanoma cells [2]; Experiment 2: 100 ng/mL, 1.0% serum, 3 days, FIG. 7) was “very potent anti-proliferative activity”, the “M21 tumor cell proliferation” value (Human M21 melanoma cells [2]; Experiment 3: 50 μg/mL, 0.5% serum, 3 days, FIG. 15) was “very potent anti-proliferative activity” and the “M21 tumor cell proliferation” value (Human M21 melanoma cells [2]; Experiment 8: 50 μg/mL, 24 hours, FIG. 12A) was “very potent anti-proliferative activity”. The “cell morphology, C8161” value (C8161 melanoma cells) was “significant cell rounding”, the “effect on proliferation of normal human melanocytes” value (Normal human melanocytes) was “very little effect” and the panc-1 cell proliferation [3] was “very potent anti-proliferative activity”. For the same molecule, the “effect on proliferation of normal human keratinocytes” value [4] was “very little effect”, the “inhibition of M21 melanoma tumor growth” value (M21 melanoma cells; Experiment 9: daily i.p., 1.0 μg/day) was “Significant inhibition” and the “inhibition of tumor growth” value (M21 melanoma cells; Experiment 10: daily i.p., 0.1, 0.5, or 1.0 μg/day, days 8, 14, and 21 (P<0.05), FIG. 16) was “significant inhibition of tumor growth”. The “inhibition of tumor growth” value (M21 melanoma cells; Experiment 11: 1.0 μg daily, day 21 (P<0.05), FIG. 17) was “significant inhibition of tumor growth”, the “A375 tumor cell proliferation” value [5] was “very potent anti-proliferative activity” and the “cell morphology, M21” value (Human M21 melanoma cells [6]) was “significant cell rounding”. The “C8161 tumor cell proliferation” value [7] was “very potent anti-proliferative activity”.
